In patent publication US4073885A (The United States of America as represented by the …, priority 1976, dated 1978):

Key:
opiate receptor [1] = assay: Brain enzymatic inactivation as assessed by opiate receptor binding inhibition
Experimental: Male rats weighing 180-220 g (Sprangue-Dawley) were decapitated and each brain with the cerebellum removed was homogenized in 150 ml of ice-cold standard buffer (0.05 M Tris-HCl, ph 7.4 at 37°). After centrifugation at 4° at 12,000 × g, the membranes were reconstituted in standard buffer. After recentrifugation, each brain was suspended in 10 ml of the standard buffer.
Aliquots of the freshly prepared membrane preparation (100 μl) were incubated for 1 hr at 0° with 100 mM NaCl in a final volume of 0.5 ml with ^3 H!naloxone (Amersham-Searle, 34 Ci/mmol) in a concentration of 1.3 nM (20,000 cpm). After rapid filtration and washing with two 7-ml portions of ice-cold standard buffer, membrane-laden filters were transferred and counted at 40-45% efficiency at least 6 hours after shaking with detergent scintillation fluor (Aquasol, New England Nuclear).
The ability of the blood inhibitory factor eluted from the thin-layer plate to be degraded by enzymes present in brain was examined by incubating the blood substance with membranes or supernatant fluid from rat brain, terminating the enzyme action by boiling, and subsequently adding the product to the opiate receptor assay (see Table 1).
Rat brains were homogenized in 100 volumes (wt/vol) of standard buffer an
the particulate fraction and supernatant fluid were obtained by
centrifugation for 10 min. at 40,000 × g. After incubation under th
specified conditions in a total volume of 1 ml with met-enkephalin or
the supernatant fluid were assessed for inhibition in the standard opiate

opiate receptor [2] = assay: Opiate receptor assay ([3H]naloxone binding, rapid filtration, rat brain membranes); settings: 100 nM
[3] = Chang et al., cited from earlier work
rat = assay: Assessment of analgesia: rat tail-flick test after micro-injection into periaqueductal gray matter; format: in vivo
Experimental: Eight rats were stereotaxically implanted with chronic indwelling cannulae guides constructed from 23 gauge TW stainless steel tubing. […] Testing was initiated approximately 1 week following surgery. The antinociceptive actions of morphine and anodynin were assessed using a modification of the D'Armour and Smith paradigm in which the latency for a rat to remove its tail from under a radiant heat source is measured in seconds. Baseline "tail-flick" latencies were always determined approximately 30 minutes prior to a drug or control injection by four trials separated by 10 sec.
The solutions were injected into the central gray matter with 30 guage injectors which extended 2 mm past the tip of the guide cannula. The injection rate was 15 μl/min. Testing for antinociception was initiated immediately after an injection. Animals were tested at 1-min. intervals for 5 min. and then at 10, 15, 30, and 60 min. At the end of the study, all animals were sacrificed and their brains were prepared following standard histological procedures to localize cannulae placements.

## CSCC[C@H](NC(=O)[C@H](Cc1ccccc1)NC(=O)CNC(=O)CNC(=O)[C@@H](N)Cc1ccc(O)cc1)C(=O)O [Net-Enkephalin, H-Tyr-Gly-Gly-Phe-Met-OH]
Opiate receptor [1]; pre-incubation: Buffer, 1 hr, 37°
  % Inhibition Stereospecific Binding: 65%
Opiate receptor [1]; pre-incubation: rat brain particulate fraction, 0.25 hr, 37°
  % Inhibition Stereospecific Binding: 39%
Opiate receptor [1]; pre-incubation: rat brain particulate fraction, 1 hr, 0°
  % Inhibition Stereospecific Binding: 65%
Opiate receptor [1]; pre-incubation: rat brain particulate fraction, 1 hr, 37°
  % Inhibition Stereospecific Binding: 2%
Opiate receptor [1]; pre-incubation: rat brain supernatant fluid, 1 hr, 37°
  % Inhibition Stereospecific Binding: 1%

## C=CCN1CC[C@@]23CCCC[C@@H]2[C@@H]1Cc1ccc(O)cc13 [dextrallorphan]
Opiate receptor [2]
  effect on 3H-naloxone binding (control incubation): did not significantly reduce binding

## CC(C)C[C@H](NC(=O)[C@H](Cc1ccccc1)NC(=O)CNC(=O)CNC(=O)[C@@H](N)Cc1ccc(O)cc1)C(=O)O [enkephalin]
[3]
  destruction in the brain: rapidly destroyed
  time after micro-injection at which analgesia disappears completely: 1 to 2 min
[3]; micro-injection
  dose required to elicit analgesia relative to morphine: at least 40 times
Opiate receptor [1]; incubation with membranes or supernatant fluid from rat brain
  Loss of opiate receptor inhibitory activity by brain enzymes: completely and rapidly reversed

## CN1CC[C@]23c4c5ccc(O)c4O[C@H]2[C@@H](O)C=C[C@H]3[C@H]1C5 [morphine]
rat; 20 mg/kg naloxone intraperitoneally, 15 min prior
  antinociceptive action after pretreatment with naloxone: blocked
rat; central gray micro-injection in rats
  behavioral effect (immobility): stuperous immobility
